Results as given in paper PMC5578999, “Novel quinolone chalcones targeting colchicine-binding pocket kill multidrug-resistant cancer cells by inhibiting tubulin activity and MRP1 function” (Scientific Reports, 2017).

Assays:
purified porcine tubulin = molecular target: T1, purified porcine tubulin (Sus scrofa, UniProt P02554); experiment: In vitro microtubule assembly (light scattering) assay; assay type: biochemical; conditions: 3 µmol/L CTR-17, 1 µmol/L CTR-20; 340 nm, one hour, 37 °C
T1 construct: purified porcine tubulin (T240, Cytoskeleton); purchased Cytoskeleton T240
T1 sequence (P02554 whole entry): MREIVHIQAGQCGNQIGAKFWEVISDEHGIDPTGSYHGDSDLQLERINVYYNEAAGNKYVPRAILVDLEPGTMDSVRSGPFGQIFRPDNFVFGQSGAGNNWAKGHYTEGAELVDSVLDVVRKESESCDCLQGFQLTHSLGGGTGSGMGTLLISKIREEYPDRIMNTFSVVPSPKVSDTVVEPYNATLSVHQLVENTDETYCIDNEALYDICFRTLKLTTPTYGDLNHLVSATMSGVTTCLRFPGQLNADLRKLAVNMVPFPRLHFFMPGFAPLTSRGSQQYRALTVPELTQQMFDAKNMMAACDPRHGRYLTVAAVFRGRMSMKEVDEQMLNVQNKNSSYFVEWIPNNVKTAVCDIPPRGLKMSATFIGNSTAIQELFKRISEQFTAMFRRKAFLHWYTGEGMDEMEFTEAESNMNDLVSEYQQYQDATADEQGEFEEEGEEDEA
T1 sequence (P02550 whole entry partner): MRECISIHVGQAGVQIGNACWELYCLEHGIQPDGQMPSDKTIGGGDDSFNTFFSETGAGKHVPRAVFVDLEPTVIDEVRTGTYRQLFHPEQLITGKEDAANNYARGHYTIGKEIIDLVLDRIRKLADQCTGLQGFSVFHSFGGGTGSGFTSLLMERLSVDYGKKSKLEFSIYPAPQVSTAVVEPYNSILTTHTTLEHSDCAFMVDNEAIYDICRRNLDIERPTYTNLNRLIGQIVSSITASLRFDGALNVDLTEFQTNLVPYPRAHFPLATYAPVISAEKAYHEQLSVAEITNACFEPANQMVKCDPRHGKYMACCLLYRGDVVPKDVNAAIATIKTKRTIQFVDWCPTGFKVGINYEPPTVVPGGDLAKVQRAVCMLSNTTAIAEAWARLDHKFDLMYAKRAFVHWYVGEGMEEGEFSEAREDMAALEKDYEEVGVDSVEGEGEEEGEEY
Procedure: Figure 5 CTRs inhibited microtubule polymerization by binding to tubulin through the colchicine-binding pocket. (a) CTRs inhibited microtubule polymerization in a similar manner to that of nocodazole. Purified porcine tubulin and 1.0 mmol/L GTP were added to reaction mixture (37 °C) containing 10 µmol/L paclitaxel (Tax), 3 µmol/L CTR-17, 1 µmol/L CTR-20, or 5 µmol/L nocodazole (Noco). Polymerization of microtubule was monitored every minute for one hour at 340 nm by spectrophotometry. Note that G-PEM buffer contains 400 µg of purified tubulin. (b) CTR-20 (and CTR-17; Supplementary Fig. S12) bound tubulin. CTR-20 quenched the intrinsic tryptophan fluorescence of tubulin in a dose-dependent manner. The changes in fluorescence intensity (∆F) were plotted against drug concentrations to determine the dissociation constant. […] CTR-20 (and CTR-17; Supplementary Fig. S12) depressed the fluorescence of the colchicine-tubulin complex in a dose-dependent manner. The fluorescence intensity of the final tubulin complex was used to determine the inhibitory concentration (Ki) using a modified Dixon plot. The fluorescence intensity was normalized by subtracting any intrinsic fluorescence of CTR-20 at given doses from that of the complex. “F” is the fluorescence of the CTR-colchicine-tubulin complex, and “F0” is the fluorescence of the colchicine-tubulin complex. […]

SK-MEL-5 = experiment: NCI-60 SRB screen; assay type: cell-based
Source text: (§1) Supplementary Figure l egend
(§2) 10μ M of CTR-20 was used to examine the drug’s efficac y against the NC I-60 cancer cell li nes including: six leukemia cell lines, nine non- small cell lung cancer cell lines, seven color ect al cancer cell lines, six CNS cancer cell lines, nine melanoma cell lines, seven ovari an can cer cell lines, seven ren al can cer cell lines, two prostate cancer cell lines and six breast cancer cell lines. The scr eenin g was car r ied out b y the US National Cancer Institute (NC I) us i n g a sulforhodamine B (SRB) colorimetric assay. […]
(§3) out by the NC I using five different doses of CTR -20.

NCI-H23 = experiment: NCI-60 SRB screen; assay type: cell-based
Source text: as §1, §2, §3

KM12 = experiment: NCI-60 SRB screen; assay type: cell-based
Source text: as §1, §2, §3

CCRF-CEM = experiment: NCI-60 SRB screen; assay type: cell-based
Source text: as §1, §2, §3

PC-3 = experiment: NCI-60 SRB screen; assay type: cell-based
Source text: as §1, §2, §3

OVCAR-4 = experiment: NCI-60 SRB screen; assay type: cell-based
Source text: as §1, §2, §3

NCI-H226 = experiment: NCI-60 SRB screen; assay type: cell-based
Source text: as §1, §2, §3

[1] = molecular target: tubulin, colchicine-binding pocket; experiment: Competitive colchicine-tubulin binding assay (modified Dixon plot); conditions: competitive with colchicine
Procedure: To determine the mode of binding, a competitive binding assay was carried out as described previously. Briefly, tubulin (0.4 μmol/L) was incubated with different concentrations of CTR for 1 hour at 37 °C. Subsequently, colchicine was added to the reaction mixture containing CTR-tubulin complexes. […] Fluorescence was monitored using an automated plate reader (Synergy H4 Hybrid Multi-Mode Micro plate Reader) with an excitation wavelength at 360 nm and emission at 430 nm. […] The experiment was repeated four times.

[2] = Homo sapiens, read-out: LC50 (the source's name)

## COc1ccccc1C(=O)/C=C/c1cc2ccccc2[nH]c1=O [CTR-17, (E)-3-(3-(2-Methoxyphenyl)-3-oxoprop-1-enyl)quinolin-2(1H)-one]
Purified porcine tubulin
  effect on microtubule polymerization: inhibit microtubule polymerization

## COc1ccc2[nH]c(=O)c(/C=C/C(=O)c3ccccc3OC)cc2c1 [CTR-20, (E)-6-Methoxy-3-(3-(2-methoxyphenyl)-3-oxoprop-1-enyl) quinolin-2(1H)-one]
Purified porcine tubulin
  effect on microtubule polymerization: inhibit microtubule polymerization
SK-MEL-5
  Log10GI50: -6.14 Molar
  Log10LC50: -5.31 Molar
  Log10TGI: -5.68 Molar
  TGI: 2.08E-6 Molar
SK-MEL-5; 1.00E-5 Molar
  Growth Percent: 25.21%
SK-MEL-5; Homo sapiens
  GI50: 0.728 µM
SK-MEL-5; [2]
  CC50: 4.93 µM
SK-MEL-5; Log10 Concentration -4.0
  Percent Growth: -98%
SK-MEL-5; Log10 Concentration -5.0
  Percent Growth: -91%
SK-MEL-5; Log10 Concentration -6.0
  Percent Growth: 43%
SK-MEL-5; Log10 Concentration -7.0
  Percent Growth: 96%
SK-MEL-5; Log10 Concentration -8.0
  Percent Growth: 101%
NCI-H23
  Log10GI50: -5.88 Molar
  Log10LC50: -4.66 Molar
  Log10TGI: -5.41 Molar
  TGI: 3.93E-6 Molar
NCI-H23; 1.00E-5 Molar
  Growth Percent: 21.29%
NCI-H23; Homo sapiens
  GI50: 1.33 µM
NCI-H23; [2]
  CC50: 21.6 µM
NCI-H23; Log10 Concentration -4.0
  Percent Growth: -64%
NCI-H23; Log10 Concentration -5.0
  Percent Growth: -43%
NCI-H23; Log10 Concentration -6.0
  Percent Growth: 63%
NCI-H23; Log10 Concentration -7.0
  Percent Growth: 87%
NCI-H23; Log10 Concentration -8.0
  Percent Growth: 88%
KM12
  Log10GI50: -6.49 Molar
  Log10LC50: -5.23 Molar
  Log10TGI: -5.80 Molar
  TGI: 1.58E-6 Molar
KM12; 1.00E-5 Molar
  Growth Percent: 4.37%
KM12; Homo sapiens
  GI50: 0.321 µM
KM12; [2]
  CC50: 5.89 µM
KM12; Log10 Concentration -4.0
  Percent Growth: -86%
KM12; Log10 Concentration -5.0
  Percent Growth: -70%
KM12; Log10 Concentration -6.0
  Percent Growth: 17%
KM12; Log10 Concentration -7.0
  Percent Growth: 84%
KM12; Log10 Concentration -8.0
  Percent Growth: 99%
CCRF-CEM
  Log10GI50: -6.41 Molar
  Log10LC50: > -4.00 Molar
  Log10TGI: > -4.00 Molar
  TGI: > 1.00E-4 Molar
CCRF-CEM; 1.00E-5 Molar
  Growth Percent: 7.53%
CCRF-CEM; Homo sapiens
  GI50: 0.392 µM
  LC50 (concentration causing 50% net cell kill): > 100 µM
CCRF-CEM; Log10 Concentration -4.0
  Percent Growth: 1%
CCRF-CEM; Log10 Concentration -5.0
  Percent Growth: 6%
CCRF-CEM; Log10 Concentration -6.0
  Percent Growth: 19%
CCRF-CEM; Log10 Concentration -7.0
  Percent Growth: 95%
CCRF-CEM; Log10 Concentration -8.0
  Percent Growth: 99%
PC-3
  Log10GI50: -6.07 Molar
  Log10LC50: -4.59 Molar
  Log10TGI: -5.43 Molar
  TGI: 3.75E-6 Molar
PC-3; 1.00E-5 Molar
  Growth Percent: 22.06%
PC-3; Homo sapiens
  GI50: 0.842 µM
PC-3; [2]
  CC50: 25.9 µM
PC-3; Log10 Concentration -4.0
  Percent Growth: -73%
PC-3; Log10 Concentration -5.0
  Percent Growth: -34%
PC-3; Log10 Concentration -6.0
  Percent Growth: 46%
PC-3; Log10 Concentration -7.0
  Percent Growth: 102%
PC-3; Log10 Concentration -8.0
  Percent Growth: 104%
OVCAR-4
  Log10GI50: -5.39 Molar
  Log10LC50: -4.11 Molar
  Log10TGI: -4.63 Molar
  TGI: 2.32E-5 Molar
OVCAR-4; 1.00E-5 Molar
  Growth Percent: 50.80%
OVCAR-4; Homo sapiens
  GI50: 4.07 µM
OVCAR-4; [2]
  CC50: 76.9 µM
OVCAR-4; Log10 Concentration -4.0
  Percent Growth: -61%
OVCAR-4; Log10 Concentration -5.0
  Percent Growth: 35%
OVCAR-4; Log10 Concentration -6.0
  Percent Growth: 73%
OVCAR-4; Log10 Concentration -7.0
  Percent Growth: 95%
OVCAR-4; Log10 Concentration -8.0
  Percent Growth: 94%
NCI-H226
  Log10GI50: -5.48 Molar
  Log10LC50: > -4.00 Molar
  Log10TGI: -4.73 Molar
  TGI: 1.85E-5 Molar
NCI-H226; 1.00E-5 Molar
  Growth Percent: 38.93%
NCI-H226; Homo sapiens
  GI50: 3.34 µM
NCI-H226; [2]
  CC50: > 100 µM
NCI-H226; Log10 Concentration -4.0
  Percent Growth: -47%
NCI-H226; Log10 Concentration -5.0
  Percent Growth: 17%
NCI-H226; Log10 Concentration -6.0
  Percent Growth: 86%
NCI-H226; Log10 Concentration -7.0
  Percent Growth: 99%
NCI-H226; Log10 Concentration -8.0
  Percent Growth: 96%
[1]
  binding to the colchicine-binding pocket by Ki values, relative to CTR-17: approximately five times more strongly
